Consider six compounds from US9024041B2, “P38 MAP kinase inhibitors” (Respivert Ltd., priority 2010, dated 2015).

Series [1] concerns the target T1, p38 MAPKα isoform (MAPK14: Invitrogen) (Homo sapiens, UniProt Q16539).
T1 construct: purchased Invitrogen
Put plainly: p38 MAPKα enzyme inhibition assay (FRET, Z-LYTE, via MAPKAP-K2 activation). Conditions: 2 hr pre-incubation, ATP 10.0 μM; read-out: Enzyme Inhibition IC50 p38α. The format is biochemical.
Description: The enzyme inhibitory activities of compounds disclosed herein were determined by fluorescence resonance energy transfer (FRET) using synthetic peptides labelled with both donor and acceptor fluorophores (Z-LYTE, Invitrogen Ltd., Paisley, UK). Recombinant, phosphorylated p38 MAPKγ (MAPK12:Invitrogen) was diluted in HEPES buffer, mixed with the test compound at the desired final concentrations and incubated for 2 hr at RT. The FRET peptide (2 μM) and ATP (100 μM) were added to the enzyme/compound mixture and incubated for 1 hr. Development reagent (protease) was added for 1 hr prior to detection in a fluorescence microplate reader (Varioskan® Flash, ThermoFisher Scientific). The site-specific protease cleaves non-phosphorylated peptide only and eliminates the FRET signal. Phosphorylation levels of each reaction were calculated using the ratio of coumarin emission (donor) over fluorescein emission (acceptor) for which high ratios indicate high phosphorylation and low ratios indicate low phosphorylation levels.
For the p38 MAPKα isoform (MAPK14: Invitrogen), enzyme activity was evaluated indirectly by determining the level of activation/phosphorylation of the down-stream molecule, MAPKAP-K2. The p38 MAPKα protein was mixed with the test compound for 2 hr at RT. […] Development reagent was then added and the mixture incubated for 1 hr before detection by fluorescence completed the assay protocol.

The target in series [2] is T2, Recombinant, phosphorylated p38 MAPKγ (MAPK12:Invitrogen) (Homo sapiens, UniProt P53778).
T2 construct: purchased Invitrogen
T2 sequence (P53778 1-367): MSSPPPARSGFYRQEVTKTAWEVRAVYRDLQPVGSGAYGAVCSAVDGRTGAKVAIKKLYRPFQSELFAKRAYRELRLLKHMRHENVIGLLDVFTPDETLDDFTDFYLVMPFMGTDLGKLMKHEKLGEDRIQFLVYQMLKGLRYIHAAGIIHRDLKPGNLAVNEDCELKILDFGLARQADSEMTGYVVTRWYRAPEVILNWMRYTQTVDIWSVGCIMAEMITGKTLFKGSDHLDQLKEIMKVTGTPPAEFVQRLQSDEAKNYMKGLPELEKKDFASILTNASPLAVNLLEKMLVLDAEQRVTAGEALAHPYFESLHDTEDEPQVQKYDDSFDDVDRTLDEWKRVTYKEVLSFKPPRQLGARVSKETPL
Put plainly: p38 MAPKγ enzyme inhibition assay (FRET, Z-LYTE). In kind it is biochemical. Conditions: 2 hr pre-incubation, ATP 100 μM; read-out: Enzyme Inhibition IC50 p38γ.

Series [3] has as its system LPS-induced TNFα release in THP-1 cells. The series is described as follows: LPS-induced TNFα release in THP-1 cells. In kind it is cell-based. As to conditions: Homo sapiens, 3 μg/mL LPS, 4 hr. The method in brief:
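Human monocytic cells were stimulated with 3 μg/mL E. coli LPS for 4 hr. Supernatant TNFα was measured by sandwich ELISA. Inhibition was taken relative to vehicle control, and IC50 derived from the concentration-response curve.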

The subject of series [4] is LPS-induced TNFα release in d-U937 cells. The series is described as follows: LPS-induced TNFα release in d-U937 cells. As to conditions: Homo sapiens, dU937, 4 h; read-out: LPS/TNFα REC50 d-U937. In kind it is cell-based. The method in brief: (§1)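 U937 cells differentiated with PMA (100 ng/mL, 48–72 hr), pre-incubated with compound 2 hr, then stimulated with 0.1 μg/mL E. coli O111:B4 LPS for 4 hr. Supernatant TNFα and IL-8 measured by sandwich ELISA; REC50 (TNFα) and IC50 (IL-8 inhibition vs vehicle) taken from concentration-response curves.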

Series [5] has as its system LPS-induced IL-8 release in d-U937 cells. Put plainly: LPS-induced IL-8 release in d-U937 cells. The format is cell-based. As to conditions: Homo sapiens, dU937, 0.1 μg/mL LPS, 4 hr. The method in brief: as §1
Series [6] relates to Poly I:C-induced ICAM-1 expression in BEAS2B cells. Put plainly: Poly I:C-induced ICAM-1 induction in BEAS2B cells. In kind it is cell-based. Conditions: Homo sapiens, BEAS-2B, poly I:C 1 μg/mL, 18 hr, read-out: PolyI:C/ICAM1 IC50 BEAS2B. The method in brief: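 Human bronchial epithelial BEAS2B cells were pre-incubated with compound for 2 h, then transfected with poly I:C at 1 μg/mL. Surface ICAM-1 was measured 18 h later by cell-based ELISA (OD450–655), normalised to crystal-violet cell number (OD595). IC50 was taken from the concentration–response curve against vehicle.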

Series [7] deals with Differentiated U937 cells. Put plainly: MTT assay: cell viability on exposure to test compounds. In kind it is cell-based, human. As to conditions: percentage loss of cell viability vs vehicle, 1 μg/mL; for MTT Assay (Viability) 4 h d-U937: 5% FCS; for MTT Assay (Viability) 24 h d-U937: 10% FCS. In a few lines: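 Differentiated U937 cells were pre-incubated with compound for either 4 h in 5% FCS or 24 h in 10% FCS, then given MTT for 1 h. Formazan was dissolved in DMSO and read at 550 nm. Viability loss is expressed as % versus 0.5% DMSO vehicle, so an apparent gain appears as a negative value.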

T1 sequence (Q16539 whole entry, canonical isoform): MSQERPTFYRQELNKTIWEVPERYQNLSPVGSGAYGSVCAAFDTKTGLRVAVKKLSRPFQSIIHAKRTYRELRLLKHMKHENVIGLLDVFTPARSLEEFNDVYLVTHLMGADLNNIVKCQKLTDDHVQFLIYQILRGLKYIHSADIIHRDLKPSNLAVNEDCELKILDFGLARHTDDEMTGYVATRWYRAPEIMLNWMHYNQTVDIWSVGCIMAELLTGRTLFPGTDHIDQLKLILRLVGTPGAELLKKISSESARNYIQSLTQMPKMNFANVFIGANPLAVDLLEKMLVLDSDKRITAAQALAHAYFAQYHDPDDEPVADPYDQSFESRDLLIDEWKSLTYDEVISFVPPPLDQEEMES

As for `COCC(=O)Nc1cc(Oc2ccc(NC(=O)Nc3cc(C(C)(C)C)nn3-c3cccc(O)c3)c3ccccc23)ccn1` [Example 32, N-(4-(4-(3-(3-tert-butyl-1-(3-hydroxyphenyl)-1H-pyrazol-5-yl)ureido)naphthalen-1-yloxy)pyridin-2-yl)-2-methoxyacetamide], the IC50 in series [1] was determined as 7.7 nM; in series [2], 78.4 nM; in series [3] it was 0.7 nM; in series [5], 0.7 nM; in series [6], 5.5 nM. Further, the EC50 in series [4] worked out at 0.1 nM. Also, the “MTT Assay (Viability) 4 h d-U937” value in series [7] is 5.8%. For the same compound, the “MTT Assay (Viability) 24 h d-U937” value in series [7] is 42.2%.

On to `COCC(=O)Nc1cc(Oc2ccc(NC(=O)Nc3cc(C(C)(C)C)nn3-c3ccc(N)cc3)c3ccccc23)ccn1` [Example 1, N-(4-(4-(3-(1-(4-Aminophenyl)-3-tert-butyl-1H-pyrazol-5-yl)ureido)naphthalen-1-yloxy)pyridin-2-yl)-2-methoxyacetamide], for which the IC50 in series [1] turned out to be 0.9 nM; in series [2], 72.4 nM; in series [3], 1 nM; in series [5], 1 nM; in series [6] it was 8.3 nM. Further, the EC50 in series [4] was determined as 0.6 nM. Besides, in series [7], the “MTT Assay (Viability) 4 h d-U937” value is recorded as −26.6%. Moreover, in series [7], the “MTT Assay (Viability) 24 h d-U937” value was determined as 78.0%.

For the compound `COCC(=O)Nc1cc(Oc2ccc(NC(=O)Nc3cc(C(C)(C)C)nn3-c3ccc(Cl)cc3)c3ccccc23)ccn1` [Example 42, N-(4-(4-(3-(3-tert-butyl-1-(4-chlorophenyl)-1H-pyrazol-5-yl)ureido)naphthalen-1-yloxy)pyridin-2-yl)-2-methoxyacetamide], the IC50 in series [1] was determined as 25 nM; in series [2], 239 nM; in series [3], 2.8 nM; in series [5], 18.9 nM; in series [6] it was 22.2 nM. Further, the EC50 in series [4] was determined as 7.2 nM. Further, the “MTT Assay (Viability) 4 h d-U937” value in series [7] is recorded as −10.7%. The “MTT Assay (Viability) 24 h d-U937” value in series [7] is recorded as −24.9%.

With `COCC(=O)Nc1cc(Oc2ccc(NC(=O)Nc3cc(C(C)(C)C)nn3-c3ccc(NS(C)(=O)=O)cc3)c3ccccc23)ccn1` [Example 2, N-(4-(4-(3-(3-tert-Butyl-1-(4-(methylsulfonamido)phenyl)-1H-pyrazol-5-yl)ureido)naphthalen-1-yloxy)pyridin-2-yl)-2-methoxyacetamide], the IC50 in series [1] was found to be 13 nM; in series [2], 42.3 nM; in series [3] it was 1.3 nM; in series [5], 7.2 nM; in series [6] it was 4.1 nM. The EC50 in series [4] was determined as 0.4 nM. Moreover, in series [7], the “MTT Assay (Viability) 4 h d-U937” value is reported as −13.2%. Also, the “MTT Assay (Viability) 24 h d-U937” value in series [7] is given as 15.1%.

In the case of `CC(C)(C)c1cc(NC(=O)Nc2ccc(Oc3ccnc(NC(=O)NC4CC4)c3)c3ccccc23)n(-c2ccc(S(C)(=O)=O)cc2)n1` [Example 47, 1-(3-tert-butyl-1-(4-(methylsulfonyl)phenyl)-1H-pyrazol-5-yl)-3-(4-(2-(3-cyclopropylureido)pyridin-4-yloxy)naphthalen-1-yl)urea], the IC50 in series [1] was determined as 8.4 nM; in series [2], 262 nM; in series [3] it was 17.3 nM; in series [5] it was 24.3 nM; in series [6], 2.4 nM. The EC50 in series [4] is 17 nM. Further, the “MTT Assay (Viability) 4 h d-U937” value in series [7] is on record as 3.5%. Also, the “MTT Assay (Viability) 24 h d-U937” value in series [7] is −21.7%.

Take `COCC(=O)Nc1cc(Oc2ccc(NC(=O)Nc3cc(C(C)(C)C)nn3-c3cc(C)cs3)c3ccccc23)ccn1` [Example 18, N-(4-(4-(3-(3-tert-Butyl-1-(4-methylthiophen-2-yl)-1H-pyrazol-5-yl)ureido)naphthalen-1-yloxy)pyridin-2-yl)-2-methoxyacetamide]: the IC50 was 8.8 nM in series [1]; 95.5 nM in series [2]; 1.2 nM in series [3]; 40 nM in series [5]; 3.7 nM in series [6]. The EC50 in series [4] came to 0.7 nM. In addition, in series [7], the “MTT Assay (Viability) 4 h d-U937” value stood at 8.2%. Besides, the “MTT Assay (Viability) 24 h d-U937” value in series [7] is −2.9%.
